Measured values published in PubChem BioAssay AID274 (DTP/NCI, 2004).
Values joined by “and” are separate entries in the source; they are usually repeats but may differ in a detail not shown here. Equal values may be shown once. Toxic doses and inconclusive results are not listed. The calls were made as follows: active = survival T/C of 150% or more; inactive = T/C below 125% in these data.

System: BDF1 mice, Lewis lung carcinoma iv, survival T/C
Assay: NCI In Vivo Anticancer Drug Screen. Data for tumor model Lewis Lung Carcinoma (intravenous) in B6D2F1 (BDF1) mice
Conditions: endpoint: median survival time, schedule: Q01DX009 (ip), higher = longer survival
Description: The antitumor activity of compounds was measured in mice bearing transplantable tumors. Survival or tumor size were measured and the results are expressed as the measurement made in the treated group (T) divided by the measurement made in the vehicle treated control group (C). The tumor model used in this assay is Lewis Lung Carcinoma (intravenous) in B6D2F1 (BDF1) mice

[1] = dose: 25.0 mg/kg/injection, vehicle: saline
[2] = dose: 50.0 mg/kg/injection, vehicle: saline
[3] = dose: 100.0 mg/kg/injection, vehicle: saline
[4] = dose: 100.0 mg/kg/injection, vehicle: saline with Tween-80
[5] = dose: 200.0 mg/kg/injection, vehicle: saline with Tween-80
[6] = dose: 400.0 mg/kg/injection, vehicle: saline with Tween-80
[7] = dose: 6.25 mg/kg/injection, vehicle: saline with Tween-80
[8] = dose: 12.5 mg/kg/injection, vehicle: saline with Tween-80
[9] = dose: 25.0 mg/kg/injection, vehicle: saline with Tween-80
[10] = dose: 50.0 mg/kg/injection, vehicle: saline with Tween-80
[11] = dose: 12.5 mg/kg/injection, vehicle: saline
[12] = dose: 200.0 mg/kg/injection, vehicle: saline

Measured: T/C

CN1CCN(c2ccc3nc(-c4ccc5nc(-c6ccc(O)cc6)[nH]c5c4)[nH]c3c2)CC1
inactive: dose: 6.0 mg/kg/injection, vehicle: saline 95 % of control | dose: 12.0 mg/kg/injection, vehicle: saline 98 % of control | [1] 120 % of control | [2] 102 % of control | [3] 100 % of control

CN(C)c1ccc2c(N(C)C)cc(N(C)C)nc2c1
inactive: dose: 1.56 mg/kg/injection, vehicle: Klucel (hydroxypropylcellulose) (HPC) 98 % of control | dose: 3.13 mg/kg/injection, vehicle: Klucel (hydroxypropylcellulose) (HPC) 95 % of control | dose: 6.25 mg/kg/injection, vehicle: Klucel (hydroxypropylcellulose) (HPC) 102 % of control | dose: 12.5 mg/kg/injection, vehicle: Klucel (hydroxypropylcellulose) (HPC) 99 % of control | dose: 25.0 mg/kg/injection, vehicle: Klucel (hydroxypropylcellulose) (HPC) 111 % of control

Oc1ccc2ccccc2c1N=Nc1ccc(F)cc1
inactive: [4] 106 % of control | [5] 91 % of control | [6] 106 % of control

CS(=O)(=O)[O-].CS(=O)(=O)[O-].NC1CCCCC1N.[Pt+4] (stereo not given)
inactive: dose: 0.31 mg/kg/injection, vehicle: dextrose 113 % of control | dose: 0.62 mg/kg/injection, vehicle: dextrose 98 % of control | dose: 1.25 mg/kg/injection, vehicle: dextrose 91 % of control

COC(=O)C(F)C(Br)C(=O)OC (stereo not given)
inactive: dose: 3.13 mg/kg/injection, vehicle: saline with Tween-80 95 % of control | [7] 99 % of control | [8] 95 % of control | [9] 100 % of control | [10] 104 % of control

CN=C(N)N/N=C(\c1ccccc1)c1ccc(Br)cc1
inactive: dose: 1.5 mg/kg/injection, vehicle: saline with Tween-80 95 % of control | dose: 3.0 mg/kg/injection, vehicle: saline with Tween-80 98 % of control | [7] 99 % of control | [8] 105 % of control

CN1c2ccc3ccccc3c2Sc2ccc3ccccc3c21
inactive: [4] 98 % of control | [5] 98 % of control | [6] 111 % of control

O=c1c(O)c(-c2cc(O)c(O)c(O)c2)oc2cc(O)cc(O)c12
inactive: dose: 6.25 mg/kg/injection, vehicle: other 88 % of control | dose: 12.5 mg/kg/injection, vehicle: other 94 % of control | dose: 25.0 mg/kg/injection, vehicle: other 93 % of control | dose: 50.0 mg/kg/injection, vehicle: other 93 % of control | dose: 100.0 mg/kg/injection, vehicle: other 115 % of control | dose: 200.0 mg/kg/injection, vehicle: other 97 % of control

c1ccc([I+]c2ccccc2)cc1
inactive: dose: 1.0 mg/kg/injection, vehicle: saline 98 % of control | dose: 2.0 mg/kg/injection, vehicle: saline 100 % of control | dose: 4.0 mg/kg/injection, vehicle: saline 109 % of control

NC1=NC(=O)N2CC12 (stereo not given)
inactive: [11] 107 % of control | [1] 110 % of control | [2] 105 % of control | [3] 105 % of control | [12] 109 % of control

CCCC(=O)Oc1ccc(/C=N/NC(N)=S)nc1
inactive: [8] 104 % of control and 109 % of control | [9] 109 % of control | [10] 96 % of control and 109 % of control | [4] 97 % of control and 104 % of control | [5] 120 % of control

O=c1n(CC2CO2)c(=O)n(CC2CO2)c(=O)n1CC1CO1 (stereo not given)
inactive: dose: 6.25 mg/kg/injection, vehicle: suspension in saline 105 % of control and 100 % of control | dose: 12.5 mg/kg/injection, vehicle: suspension in saline 107 % of control and 101 % of control | dose: 25.0 mg/kg/injection, vehicle: suspension in saline 121 % of control and 101 % of control

O=C1c2ccccc2C(=O)c2c(NCCNCCO)ccc(O)c21
inactive: dose: 2.5 mg/kg/injection, vehicle: suspension in saline 92 % of control | dose: 5.0 mg/kg/injection, vehicle: suspension in saline 88 % of control | dose: 10.0 mg/kg/injection, vehicle: suspension in saline 88 % of control | dose: 20.0 mg/kg/injection, vehicle: suspension in saline 97 % of control | dose: 40.0 mg/kg/injection, vehicle: suspension in saline 103 % of control | dose: 80.0 mg/kg/injection, vehicle: suspension in saline 102 % of control

O=c1ccn(C2OC(CO)C(O)C2O)c(=O)[nH]1 (stereo not given)
inactive: dose: 32.0 mg/kg/injection, vehicle: Klucel (hydroxypropylcellulose) (HPC) 109 % of control | dose: 64.0 mg/kg/injection, vehicle: Klucel (hydroxypropylcellulose) (HPC) 96 % of control | dose: 128.0 mg/kg/injection, vehicle: Klucel (hydroxypropylcellulose) (HPC) 96 % of control | dose: 256.0 mg/kg/injection, vehicle: Klucel (hydroxypropylcellulose) (HPC) 110 % of control | dose: 512.0 mg/kg/injection, vehicle: Klucel (hydroxypropylcellulose) (HPC) 106 % of control

CC(C)[NH-].CC(C)[NH-].O.O.[Cl][Pt+2][Cl]
inactive: dose: 3.13 mg/kg/injection, vehicle: dextrose 100 % of control | dose: 6.25 mg/kg/injection, vehicle: dextrose 102 % of control

CC(=O)OCC1OC(n2ncc(=O)[nH]c2=O)C(OC(C)=O)C1OC(C)=O (stereo not given)
inactive: dose: 100.0 mg/kg/injection, vehicle: Klucel (hydroxypropylcellulose) (HPC) 100 % of control | dose: 200.0 mg/kg/injection, vehicle: Klucel (hydroxypropylcellulose) (HPC) 109 % of control | dose: 400.0 mg/kg/injection, vehicle: Klucel (hydroxypropylcellulose) (HPC) 107 % of control

Nc1ncnc2c1ncn2C1OC(COP(=O)(O)O)C(O)C1O (stereo not given)
inactive: dose: 12.5 mg/kg/injection, vehicle: water 104 % of control | dose: 25.0 mg/kg/injection, vehicle: water 112 % of control | dose: 50.0 mg/kg/injection, vehicle: water 100 % of control | [3] 97 % of control | dose: 100.0 mg/kg/injection, vehicle: water 103 % of control | [12] 118 % of control | dose: 200.0 mg/kg/injection, vehicle: water 100 % of control | dose: 400.0 mg/kg/injection, vehicle: saline 96 % of control | dose: 800.0 mg/kg/injection, vehicle: saline 108 % of control

Nc1ccn([C@@H](C=O)O[C@@H](C=O)CO)c(=O)n1
inactive: dose: 6.25 mg/kg/injection, vehicle: saline 96 % of control | [11] 105 % of control | [1] 100 % of control | [2] 96 % of control | [3] 97 % of control
